Test system: NF-κB
Assay: Test of the potency of NF-κB activation suppression (gel shift assay, UVB-irradiated human epidermal cells)
Format: cell-based
Conditions: added 18 h before UVB 50 mJ/cm^2, nuclear protein 4 to 5 hours later
Procedure: Test compounds shown in Table 1 were added individually to human epidermal cells at confluency in a culture plate. 18 hours later, the culture broth was exchanged with a phenol red-free culture medium. Using Dermalei M-DMR-80 (manufactured by Toshiba Medical Supplies, Co., Ltd.), the cells were irradiated with an ultraviolet ray (UVB: 50 mJ/cm^2). 4 to 5 hours later, the cells were recovered and the nuclear protein was extracted using a general method. By using a gel shift assay method, the activated NF-κB in the resulting nuclear protein was detected. Determination of NF-κB was conducted based on counting the radioactivity of labeled NF-κB using a bioimaging analyzer BAS2000 (manufactured by Fuji Film Co., Ltd.). The ratio of NF-κB activation suppression by the inventive compounds compared with a test compound was calculated by the following formula (1). Ratio (%) of NF-κB activation suppression=[1-(A1−A3)/(A2−A3)]×100 (1)
A1: radioactivity of NF-κB band with addition of test compound
A2: radioactivity of NF-κB band without addition of test compound
A3: radioactivity of NF-κB band without addition of test compound and without ultraviolet irradiation

SMILES	Suppression ratio (%) of NF-κB activation (test compound 10 mM)	Suppression ratio (%) of NF-κB activation (test compound 30 mM)	Suppression ratio (%) of NF-κB activation (test compound 0.1 mM)	Suppression ratio (%) of NF-κB activation (test compound 0.5 mM)	Suppression ratio (%) of NF-κB activation (test compound 1.0 mM)
O=C(O)[C@H](CO)NCc1ccccc1O [N-(2-Hydroxybenzyl)-L-serine]	17%	34%	–	–	–
O=C(O)[C@H](CSSC[C@H](NCc1ccccc1O)C(=O)O)NCc1ccccc1O [N,N′-Bis(2-hydroxybenzyl)-L-cystine]	–	–	41%	86%	> 100%
CC(=O)N[C@@H](CSSC[C@H](NC(C)=O)C(=O)O)C(=O)O [N,N′-Diacetyl-L-cystine]	48%	67%	–	–	–

Reference: patent US6914075B2, “Cystine derivative and agent for suppressing activation of inflammatory factors” (Ajinomoto Co., Inc., priority 2001, dated 2005)
